# Measurements: PubChem BioAssay (NCI)
# “And” between values parts separate entries of the source, which are not always exact repeats. Equal entries are not always repeated.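 Tested at 5 concentrations; 48 h exposure; 96-well plates; endpoints linearly interpolated, else capped at highest concentration. The concentration for 50% growth inhibition is given as GI50. TGI: total growth inhibition.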
# Legend:
# Test in all cases: NCI tumour cell line growth inhibition, 48 h
# [1] = tested on: HCC-2998 colon
# [2] = tested on: UO-31 renal
# [3] = tested on: T-47D breast
# [4] = tested on: U251 CNS
# [5] = tested on: RPMI-8226 leukemia
# [6] = tested on: OVCAR-8 ovarian
# [7] = tested on: MDA-MB-435
# [8] = tested on: PC-3 prostate
# [9] = tested on: CCRF-CEM leukemia
# [10] = tested on: KM12 colon
# [11] = tested on: OVCAR-4 ovarian
# [12] = tested on: UACC-62 melanoma
# [13] = tested on: HOP-62 NSCLC
Compound,TGI [1],TGI [2],TGI [3],TGI [4],TGI [5],TGI [6],TGI [7],TGI [8],TGI [9],TGI [10],TGI [11],TGI [12],TGI [13],GI50 [2],GI50 [9],GI50 [1],GI50 [7],GI50 [10],GI50 [13],GI50 [11]
S=c1[nH]c(=S)c2cc(Sc3ccc4[nH]c(=S)[nH]c(=S)c4c3)ccc2[nH]1,> 100 µM,82.4 µM,> 100 µM,> 100 µM,54.9 µM,48.1 µM,> 100 µM,> 100 µM,80.9 µM,62.5 µM,49.7 µM,36.3 µM,–,–,–,–,–,–,–,–
O=c1oc2ccccc2n1CCN1CCCCC1,–,–,–,> 100 µM,> 100 µM,> 100 µM,> 100 µM,> 100 µM,> 100 µM,> 100 µM,–,> 100 µM,> 100 µM,–,–,–,–,–,–,–
CC(=O)OC1c2ccccc2CCCCCCC12OCCO2 (configuration not stated),> 100 µM,> 100 µM,–,> 100 µM,> 100 µM,> 100 µM,–,–,> 100 µM,> 100 µM,> 100 µM,> 100 µM,> 100 µM,–,–,–,–,–,–,–
S=C1N=C(Cl)C2(NN1)c1ccccc1-c1ccccc12,> 10 µM,> 10 µM,> 10 µM,> 10 µM,> 10 µM,> 10 µM,–,–,> 10 µM,> 10 µM,> 10 µM,> 10 µM,> 10 µM,–,–,–,–,–,–,–
COc1cccc(-c2cc(=O)c3c(C)ccnc3[nH]2)c1,0.27 µM,> 100 µM,> 100 µM,> 100 µM,11.8 µM,> 100 µM,–,> 100 µM,0.218 µM,1.49 µM,> 100 µM,> 100 µM,> 100 µM,–,–,–,–,–,–,–
COCc1cc2c(cc1/C=C/[N+](=O)[O-])OCO2,32 µM,30.9 µM,41.8 µM,31.6 µM,> 100 µM,55.2 µM,33.2 µM,24.6 µM,37.7 µM,35.8 µM,–,32 µM,35.8 µM,–,–,–,–,–,–,–
Cc1c(NC(=S)Nc2ccc(Cl)cc2)c(=O)n(-c2ccccc2)n1C,> 100 µM,> 100 µM,–,> 100 µM,> 100 µM,–,> 100 µM,> 100 µM,> 100 µM,> 100 µM,–,> 100 µM,> 100 µM,–,–,–,–,–,–,–
CC(C)=CCC/C(C)=C/CC/C(C)=C/CC/C(C)=C/CC/C(C)=C\CC/C(C)=C/CC/C(C)=C/CC/C(C)=C/Cc1cc(O)ccc1O,> 48.8 µM,5.71 µM,50.1 µM,4.06 µM,–,3.42 µM,–,2.44 µM,> 34.9 µM,2.53 µM,7.4 µM,0.857 µM,29.5 µM,–,–,–,–,–,–,–
CC(C)=CCSC1CC2C(CC1(C)O)C2(C)C (configuration not stated),3.27 µM and 18.6 µM,28.2 µM and 20.8 µM,–,28.5 µM and 27.1 µM,48.5 µM and 61.6 µM,34.3 µM and 27.1 µM,–,–,> 100 µM and 38.7 µM,35.7 µM and 27.7 µM,35 µM and 29.2 µM,29.2 µM and 31.7 µM,31.8 µM and 31.2 µM,14.4 µM and 6.12 µM,26 µM and 12.8 µM,–,–,–,–,–
COc1ccc(-c2cc(-c3cc(OC)c(OC)c(OC)c3)cc(-c3cc4ccccc4oc3=O)n2)cc1,80.5 µM,24.7 µM,26 µM,12.5 µM,–,16.3 µM,> 100 µM,76.8 µM,> 100 µM,> 100 µM,21.4 µM,33.6 µM,5.8 µM,–,–,–,–,–,–,–
CC1(C)N=C(N)N=C(N)N1c1cccc(OCCOc2ccc([N+](=O)[O-])cc2)c1,–,–,–,> 100 µM,> 100 µM,> 100 µM,> 100 µM,> 100 µM,> 100 µM,> 100 µM,> 100 µM,–,> 100 µM,–,–,–,–,–,–,–
CCOc1cc(NC(C)=O)ccc1C(=O)NN1C(=O)/C(=C/c2cc(OC)c(OC)c(OC)c2)N=C1c1ccccc1,> 100 µM,> 100 µM,–,–,–,> 100 µM,> 100 µM,–,> 100 µM,98.2 µM,> 100 µM,> 100 µM,–,–,–,–,–,–,–,–
COc1cc(COC(=O)N2CCC2C(=O)O)c([N+](=O)[O-])cc1OC (configuration not stated),> 100 µM,> 100 µM,> 100 µM,> 100 µM,> 100 µM,> 100 µM,> 100 µM,> 100 µM,> 100 µM,> 100 µM,–,> 100 µM,> 100 µM,–,–,–,–,–,–,–
COC(=O)c1csc(-c2nc(CCNC(=O)OC(C)(C)C)sc2Br)n1,> 100 µM,> 100 µM,–,> 100 µM,> 100 µM,> 100 µM,> 100 µM,> 100 µM,> 100 µM,> 100 µM,–,> 100 µM,> 100 µM,–,–,–,–,–,–,–
COc1ccc(C2S/C(=C\c3ccc(O)cc3)C(=O)N2NC(=O)Cc2ccccc2)cc1 (configuration not stated),–,> 100 µM,–,> 100 µM,> 100 µM,> 100 µM,–,–,> 100 µM,> 100 µM,> 100 µM,> 100 µM,> 100 µM,–,–,–,–,–,–,–
CC(=O)OCC1=C(C)C(OC(=O)C(OC(C)=O)[C@@H](NC(=O)c2ccccc2)c2ccccc2)CCC1(C)C (some centres not stated),> 100 µM,> 100 µM,> 100 µM,> 100 µM,> 100 µM,> 100 µM,> 100 µM,–,> 100 µM,> 100 µM,> 100 µM,> 100 µM,> 100 µM,–,–,–,–,–,–,–
CNC(=O)c1[nH]cnc1/N=N/N(C)N,> 100 µM,> 100 µM,> 100 µM,> 100 µM,> 100 µM,> 100 µM,> 100 µM,> 100 µM,–,> 100 µM,> 100 µM,> 100 µM,> 100 µM,–,–,–,–,–,–,–
c1ccc(-c2nn(-c3ccccc3)[n+](-c3ccccc3)n2)cc1,23.7 µM,> 100 µM,> 100 µM,> 100 µM,–,> 100 µM,23.5 µM,> 20.7 µM,> 39.8 µM,> 81.7 µM,> 100 µM,40.9 µM,> 100 µM,–,–,–,–,–,–,–
CCN(CC)C(=S)SS(=O)(=O)c1ccc([N+](=O)[O-])cc1,> 100 µM,47 µM,> 100 µM,36.7 µM,48.8 µM,42.5 µM,54.7 µM,–,–,24.5 µM,> 100 µM,> 100 µM,> 100 µM,–,–,93.7 µM,23.2 µM,11.1 µM,32.1 µM,45.5 µM
